pIC50, pKi: −log10 of the molar value. Where two headings read alike, the source gives them in different places.
How the values were obtained:
17βHSD5 = biological target: T1, 17βHSD5 (Homo sapiens, UniProt P42330); details: cited from earlier work; for pIC50: literature
T1 sequence (P42330 1-323): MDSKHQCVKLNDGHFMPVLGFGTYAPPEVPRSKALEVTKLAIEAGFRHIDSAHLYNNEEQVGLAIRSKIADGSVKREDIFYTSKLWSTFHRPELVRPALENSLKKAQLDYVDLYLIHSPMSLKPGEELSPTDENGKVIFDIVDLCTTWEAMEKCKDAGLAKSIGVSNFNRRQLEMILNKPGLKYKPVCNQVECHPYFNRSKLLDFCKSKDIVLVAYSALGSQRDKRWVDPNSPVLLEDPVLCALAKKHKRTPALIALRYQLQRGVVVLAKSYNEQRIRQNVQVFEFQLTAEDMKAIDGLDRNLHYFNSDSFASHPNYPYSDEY

luciferase = luciferase (Photinus pyralis, UniProt P08659); experiment: Luciferase activity in U2OS cell line constitutively expressing luciferase gene; assay type: cell-based; details: read-out: Luciferase activity IC50
Method: In order to distinguish between the specific, steroid hormone response elements-driven regulation of the luciferase expression and the possible effects of test compounds on the luciferase activity, compounds were tested in parallel experiment on a U2OS cell line constitutively expressing luciferase gene.
Luciferase activity was determined by a commercial kit Britelite plus a luciferase reporter gene assay reagent (Perkin Elmer, USA), 24 h after addition of compounds to cells. The intensity of luminescence was measured on an Envision multimode spectrophotometer (PerkinElmer).

U2OS cells = experiment: Cell viability (ATP) of unmodified U2OS cells, parallel to reporter assay; assay type: cell-based, human
Method: To separate the antagonist activity of test compounds from the cytotoxic effect on U2OS cells (cell line derived from osteosarcoma), an experiment for determination of cell viability was performed in parallel with the reporter assay. Original, genetically unmodified U2OS cells were grown under the same conditions as the reporter cells. These cells were further treated and incubated with the compounds in a completely identical manner and for the same time as cells in the reporter assay. At the end of the experiment, the amount of ATP was determined using BriteLite luciferase homogeneous assay as a measure of cell viability. The data were then processed together with data from the reporter assays.

human 17βHSD type 1 = biological target: T2, human 17βHSD type 1 (Homo sapiens, UniProt P14061); experiment: Inhibition of recombinant 17βHSD type 1, tritium-labeled substrate conversion; assay type: biochemical; details: for inhibition at 0.1 µM: 0.1 μmol · l^−1 test substance; for inhibition at 0.1 µM / inhibition at 1 µM: read-out: % of inhibition of human 17βHSD1; for inhibition at 1 µM: 1 μmol · l^−1 test substance; for pIC50: read-out: 17βHSD1 IC50
T2 construct: made in house; expressing system suspended in buffer, not purified
T2 sequence (P14061 1-328): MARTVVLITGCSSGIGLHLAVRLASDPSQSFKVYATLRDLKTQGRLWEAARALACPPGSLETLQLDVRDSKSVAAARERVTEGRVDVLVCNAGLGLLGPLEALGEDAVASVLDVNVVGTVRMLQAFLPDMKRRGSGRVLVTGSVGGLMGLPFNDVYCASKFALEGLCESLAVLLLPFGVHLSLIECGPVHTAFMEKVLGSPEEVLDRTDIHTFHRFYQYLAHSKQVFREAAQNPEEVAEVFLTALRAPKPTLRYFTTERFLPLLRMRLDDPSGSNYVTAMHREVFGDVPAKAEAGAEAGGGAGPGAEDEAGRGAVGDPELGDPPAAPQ
Method: (§1) The inhibitory activity of the test substances was determined for individual isoenzymes from the 17βHSD family, specifically these were the types 1, 2, 3, 4, 5 and 7. Escherichia coli and mammalian cells expression systems were used for recombinant expression of individual isozymes of human 17βHSD. Only in the case of 17HSD5 the enzyme was partially purified and supernatant obtained by centrifugation of the bacterial lysate was used for testing. Systems expressing specific 17βHSD type were suspended in a reaction buffer and incubated with tritium-labeled substrates and respective cofactors at 37° C. in two parallel tests: the control arrangement (DMSO without the inhibitor) and the test arrangement (DMSO with the inhibitor). DMSO serves as a negative control in this case. After 20-30% of the substrate was converted by the activity of the enzyme to the product in a control test, both tests were terminated. Substrate and product from the test arrangement were isolated by SPE (solid phase extraction), and then separated by reverse phase HPLC. Substrate conversion was determined by integration of the signals of the substrate and product, and was expressed in %. For the purposes of the subsequent calculation of enzyme inhibition, the conversion of the control test was designated as 0% inhibition. All tests were performed in triplicates. IC50 values were subsequently determined by a standard method using the “One Ligand Binding” model of SigmaPlot kinetics module (Schustera et. al. J. Ster. Biochem. Mol. Biol. 2011, 125, 148; Möller et. al. Biioorg. Med. Chem. Lett. 2009, 19, 6740; Möller et. al. PLoS One, 2010, 5, 6, e10969).

BJ = experiment: MTT cytotoxicity assay, BJ fibroblasts; assay type: cell-based; details: Homo sapiens, non-tumor fibroblasts
Text: (§2) Compounds 5, 6, 7, 9, 14 and 15 were used for evaluation of antitumor activity. MTT cytotoxicity assay was used in vitro on cell lines derived from normal tissues and from tumors. Specifically, these were the K562 line (human myeloid leukemia), K562-Tax (human myeloid leukemia resistant to taxol and overexpressing PgP protein for multidrug resistance), CEM (T-lymphoblastic leukemia), CEM-DNR bulk (T-lymphoblastic leukemia resistant doxorubicin, lacking the expression of the target gene for inhibitors of topoisomerase II alpha), A549 line (human lung adenocarcinoma), HCT116p53 wt (human colon cancer), HCT116p53−/− (human colon cancer, mutant p53), U2OS line of human osteosarcoma and two fibroblast lines MRC5 and BJ as examples of non-tumor cells. Expression characteristics, profiles of susceptibility to classical antitumor drugs and methodology of the MTT cytotoxicity assay were repeatedly published (e.g. Noskova et al. Neoplasma 2002, 49, 418; S̆arek et. al. J. Med. Chem. 2003, 46, 25, 5402).

HCT116p53 wt = experiment: MTT cytotoxicity assay, HCT116p53 wt; assay type: cell-based; details: Homo sapiens
Text: as §2

CEM = experiment: MTT cytotoxicity assay, CEM; assay type: cell-based; details: Homo sapiens, CCRF-CEM
Text: as §2

A549 = experiment: MTT cytotoxicity assay, A549; assay type: cell-based; details: Homo sapiens
Text: as §2

CEM-DNR-bulk = experiment: MTT cytotoxicity assay, CEM-DNR-bulk; assay type: cell-based
Text: as §2

K562-Tax = experiment: MTT cytotoxicity assay, K562-Tax; assay type: cell-based; details: Homo sapiens
Text: as §2

MRCS = experiment: MTT cytotoxicity assay, MRC5 fibroblasts; assay type: cell-based; details: Homo sapiens, Fibroblast, non-tumor fibroblasts
Text: as §2

human 17βHSD1 [1] = biological target: T3, human 17βHSD1 (Homo sapiens, UniProt P14061); experiment: 17βHSD inhibition in CHO cells transfected with human 17βHSD1, E1 in supernatant; assay type: cell-based; set-up: expressed in transfected cells; details: 10 μmol·l^−1
T3 sequence (P14061 1-328): T2 sequence (P14061 1-328)
Method: (§3) For this experiment, non-cytotoxic concentrations of estrone derivative (10 μmol·l^−1) were used. E1 levels were determined by an immuno-enzymatic assay.

human 17βHSD type 5 = biological target: T4, human 17βHSD type 5 (Homo sapiens, UniProt P42330); experiment: Inhibition of recombinant 17βHSD type 5, tritium-labeled substrate conversion; assay type: biochemical; details: 1 μmol · l^−1 test substance
T4 construct: made in house; host or cells: bacteria (Escherichia coli); supernatant of the lysate
T4 sequence (P42330 1-323): T1 sequence (P42330 1-323)
Method: as §1

K562 = experiment: MTT cytotoxicity assay, K562; assay type: cell-based; details: Homo sapiens
Text: as §2

HCT116p53-/- = experiment: MTT cytotoxicity assay, HCT116p53-/-; assay type: cell-based; details: Homo sapiens
Text: as §2

human 17βHSD1 [2] = biological target: T3, human 17βHSD1; experiment: 17βHSD inhibition in MCF-7 cells transfected with human 17βHSD1, E1 in supernatant; assay type: cell-based; set-up: expressed in transfected cells; host or cells: MCF-7; details: 10 μmol·l^−1
Method: as §3

U2OS = experiment: MTT cytotoxicity assay, U2OS; assay type: cell-based; details: Homo sapiens
Text: as §2

[3] = biological target: T5, estrogen receptor α (ERα) (Homo sapiens, UniProt P03372); experiment: ERα luciferase reporter assay in U2OS cells; assay type: cell-based; details: testing range 10 μmol·l^−1 to 1 nmol·l^−1
T5 construct: expressed in transfected cells
T5 sequence (P03372 1-595): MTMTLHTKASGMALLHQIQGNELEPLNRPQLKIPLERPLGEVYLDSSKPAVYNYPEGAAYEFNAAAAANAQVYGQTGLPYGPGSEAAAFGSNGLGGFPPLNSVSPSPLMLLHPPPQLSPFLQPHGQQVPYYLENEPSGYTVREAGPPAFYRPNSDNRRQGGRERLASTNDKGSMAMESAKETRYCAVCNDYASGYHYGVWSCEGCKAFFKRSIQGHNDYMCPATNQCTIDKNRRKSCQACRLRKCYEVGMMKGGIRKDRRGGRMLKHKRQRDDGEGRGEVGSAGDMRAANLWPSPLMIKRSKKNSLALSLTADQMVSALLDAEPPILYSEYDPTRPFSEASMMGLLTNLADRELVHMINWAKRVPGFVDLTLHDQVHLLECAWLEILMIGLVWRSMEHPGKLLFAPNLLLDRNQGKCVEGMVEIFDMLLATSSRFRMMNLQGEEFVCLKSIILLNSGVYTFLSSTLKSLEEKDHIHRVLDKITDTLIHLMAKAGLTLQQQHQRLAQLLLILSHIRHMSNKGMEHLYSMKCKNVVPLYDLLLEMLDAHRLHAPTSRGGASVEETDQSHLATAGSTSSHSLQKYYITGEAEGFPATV

Row | Compound | inhibition at 0.1 µM (human 17βHSD type 1) | inhibition at 1 µM (human 17βHSD type 1) | pIC50 (human 17βHSD type 1) | pIC50 (BJ) | pIC50 (HCT116p53 wt) | pIC50 (CEM) | pIC50 (A549) | pIC50 (CEM-DNR-bulk) | melting point | pIC50 (K562-Tax) | pIC50 (MRCS) | E1 in supernatant, CHO (human 17βHSD1 [1]; 8 hr.) | E1 in supernatant, CHO (human 17βHSD1 [1]; 24 hr.) | % of inhibition of human 17βHSD5 (human 17βHSD type 5) | pIC50 (K562) | pIC50 (HCT116p53-/-) | E1 in supernatant, MCF-7 (human 17βHSD1 [2]; 8 hr.) | E1 in supernatant, MCF-7 (human 17βHSD1 [2]; 24 hr.) | pIC50 (U2OS) | also measured
1 | 3-deoxyestradiol with C-17-dimethyl-spiro-δ-lactone | – | – | – | – | – | – | – | – | – | – | – | – | – | – | – | – | – | – | – | pIC50 (17βHSD5): 8.54
2 | 4-hydroxytamoxifen [Compound 4-OHT, reference compound] | – | – | – | – | – | – | – | – | – | – | – | – | – | – | – | – | – | – | – | pIC50 (luciferase): 4.99; pIC50 (U2OS cells): 4.92
3 | C[C@]12CC[C@@H]3c4ccc(O)cc4CC[C@H]3[C@@H]1[C@H](CCc1ccc(F)cc1)CC2=O [Compound 5, 15β-(4-Fluorophenethyl)-3-hydroxy-estra-1,3,5(10)-trien-17-one] | 72% | 92% | 7.26 | 4.62 | 4.53 | 4.60 | 4.45 | 4.55 | 164 °C | 4.71 | 4.74 | 3194 pg/mL | 1576 pg/mL | 70% | 4.60 | 4.52 | 3373 pg/mL | 2236 pg/mL | 4.52 | –
4 | C[C@]12CC[C@@H]3c4ccc(O)cc4CC[C@H]3[C@@H]1[C@H](CCc1ccc(Cl)cc1)CC2=O [Compound 6, 15β-(4-Chlorophenethyl)-3-hydroxy-estra-1,3,5(10)-trien-17-one] | 90% | 97% | 8.05 | 4.54 | 4.53 | 4.79 | 4.45 | 4.61 | 168 °C | 4.88 | 4.68 | 4137 pg/mL | 1804 pg/mL | 90% | 4.57 | 4.51 | 4251 pg/mL | 3323 pg/mL | 4.55 | –
5 | COC(=O)c1ccc(CC[C@@H]2CC(=O)[C@@]3(C)CC[C@@H]4c5ccc(O)cc5CC[C@H]4[C@H]23)cc1 [Compound 7, Methyl 4-(2-(3-hydroxy-estra-1,3,5(10)-trien-17-on-15β-yl)ethyl)benzoate] | 84% | 99% | 7.80 | < 4.30 | < 4.30 | 4.59 | < 4.30 | 4.48 | 139 °C | 4.90 | < 4.30 | 2101 pg/mL | 1476 pg/mL | 63% | < 4.30 | < 4.30 | 1921 pg/mL | 1839 pg/mL | < 4.30 | ER antagonism in words [3]: ER antagonist
6 | Cc1ccc(CC[C@@H]2CC(=O)[C@@]3(C)CC[C@@H]4c5ccc(O)cc5CC[C@H]4[C@H]23)cc1 [Compound 15, 3-Hydroxy-15β-(4-methylphenethyl)-estra-1,3,5(10)-trien-17-one] | 87% | 100% | 8.10 | 4.55 | 4.55 | 4.66 | 4.55 | 4.62 | 159 °C | 4.86 | 4.71 | 750 pg/mL | 554 pg/mL | 86% | 4.62 | 4.53 | 719 pg/mL | 948 pg/mL | 4.54 | –
7 | CC1(C)CCC2(CCC3C4CCc5cc(C(N)=O)ccc5C4CCC32C)OC1=O [EM1404, 3-carboxamido-1,3,5-(10)-estratrien-17(R)-spiro-2-(5,5-dimethyl-6-oxo)tetra-hydro-pyran] | – | – | – | – | – | – | – | – | – | – | – | – | – | – | – | – | – | – | – | pKi (17βHSD5; Qiu et al. 2007, WO9946279): 8.16; pIC50 (17βHSD5): 8.49
8 | CC#C[C@]1(O)CC[C@H]2[C@@H]3CCC4=CC(=O)CCC4=C3[C@@H](c3ccc(N(C)C)cc3)C[C@@]21C [RU486, reference compound] | – | – | – | – | – | – | – | – | – | – | – | – | – | – | – | – | – | – | – | pIC50 (luciferase): 4.75; pIC50 (U2OS cells; Homo sapiens): 4.32

From patent publication US10759826B2, “15β-substituted estrone derivatives as selective inhibitors of 17β-hydroxysteroid-dehydrogenases, method of preparation and use thereof” (USTAV ORGANICKE CHEMIE A BIOCHEMIE AV CR, V.V.I., priority 2016, dated 2020)
